# Experimental data from patent US20170276611A1, “CHALCOGENOPYRYLIUM DYES, COMPOSITIONS COMPRISING SAME, COMPOSITE NANOPARTICLES COMPRISING SAME, AND METHODS OF MAKING AND USING THE SAME” (The Research Foundation for The State University of New York, priority 2014, published 2017).
# Legend:
# Assay type in all cases: physicochemical
# [1] = Fluorescence of dyes incorporated in silica without gold nanoparticle; details: dye in silica without gold nanoparticle, excited at 785-nm, 50 μW/cm^2, 1.0 s
# Excerpt: Comparison of CP-dye 3 with a cyanine-based SERRS-reporter. In order to assess the quality of our optimized nanoprobe, thiopyrylium dye 3 and commercially available IR792 (FIG. 19 A), which has been previously used to generate surface-enhanced resonance Raman scattering nanoprobes, were studied. […] It is interesting to note that a fluorescence background is minimal in the SERRS spectra of the CP- and cyanine-based SERRS-nanoprobes. Whereas fluorescence interference would not be expected from chalcogenopyrylium dyes containing heavy chalcogens that enhance intersystem crossing, fluorescence interference could be expected for the cyanine dye IR792. […] This is due to quenching effects near the surface of the nanoparticle.
# [2] = Effect of counterion on colloidal stability of SERRS-nanoprobes; details: 10 μM dye
# Experimental: Effect of counterion on colloidal stability and SERRS-signal. […] Since SERRS is highly dependent on these factors, we evaluated the effect of the counterion (Z^−) on the SERRS spectrum, intensity, and colloidal stability of the pyrylium-based SERRS-nanoprobes. We compared chloride (Cl^−), bromide (Br^−), perchlorate (ClO4^−), and hexafluorophosphate (PF6^−) as counterions for chalcogenopyrylium dye 1a. The SERRS-nanoprobes were synthesized in the presence of equimolar amounts (10 μM) of CP dye 1a.Z^− (where Z^−═Cl^−, Br^−, ClO4^−, or PF6^−). The counterion introduces almost no difference in optical properties (e.g. absorption maxima, extinction coefficient). Furthermore, with the exception of the chloride counter-ion, the Raman shifts and intensity of 1a were minimally affected by the different counterions (FIG. 17 B). […] Since the PF6^− anion induced the least nanoparticle aggregation, it was used for further SERRS experiments.
# SERRS-nanoprobe characterization. […] The size and concentration of the SERRS-nanoprobes were determined on a Nanoparticle Tracking Analyzer (NTA; Malvern Instruments, Malvern, UK). Absorption spectra to determine possible nanoparticle aggregation (typically detectable at wavelengths >600 nm) were measured on an M1000Pro spectrophotometer (Tecan Systems Inc. San Jose, Calif.). […]
# [3] = UV/VIS-near-IR absorption of the dyes; details: Table 2, Example 2 dyes
# Experimental: Synthetic Methods. All reactions were performed open to air unless otherwise noted. Concentration in vacuo was performed on a rotary evaporator. NMR spectra were recorded at 300 or 500 MHz for ^1H and at 75.5 MHz for ^13C with residual solvent signal as internal standard. UV/VIS-near-IR spectra were recorded in quartz cuvettes with a 1-cm path length. Melting points were determined with a capillary melting point apparatus and are uncorrected. […] Pyranones 16b-16d are known compounds (J. Heterocycl. Chem. 1999, 36, 707-717). The synthesis of thiopyranone 16a and 4-methylpyrylium salt 15c is shown in Scheme 2. 4-Methylpyrylium salts 15a, 15d, and 15e have been reported previously in the literature (J. Org. Chem. 1982, 47, 5235-5239; Organometallics 1988, 7, 1131-1147; Dyes Pigm. 2000, 45, 1-7).
Structure (SMILES),fluorescence [1],colloidal stability of SERRS-nanoprobes ([2]; counterion Cl^−),colloidal stability of SERRS-nanoprobes ([2]; counterion PF6^−),Log (ε) [3],λmax (CH2Cl2) ([3]; CH2Cl2)
CCCN1/C(=C\C=C2/CCCC(/C=C/C3=[N+](CCC)c4ccccc4C3(C)C)=C2Sc2ccccc2)C(C)(C)c2ccccc21 [IR792],strong fluorescence,,,,
"C(=Cc1cc(-c2ccccc2)[se+]c(-c2ccccc2)c1)C=C1C=C(c2ccccc2)[Se]C(c2ccccc2)=C1.F[P-](F)(F)(F)(F)F [Dye 1a, 4-(3-(2,6-diphenyl-4H-selenopyran-4-ylidene)prop-1-enyl)-2,6-diphenylselenopyrylium hexafluorophosphate]",,strongly destabilized the gold colloids and caused aggregation,did not affect colloidal stability,5.40,806 nm
